Consider 19 compounds from PubChem BioAssay AID330 (DTP/NCI, 2004).

“And” between values parts separate entries of the source, which are not always exact repeats. Equal values may be shown once. Inconclusive results and toxic doses are left out.

The assay concerns P388 leukemia ip, CD2F1 mice, survival T/C. The assay can be described thus: NCI In Vivo Anticancer Drug Screen. Data for tumor model P388 Leukemia (intraperitoneal) in CD2F1 (CDF1) mice. The following applies: endpoint: median survival time, higher = longer survival. The essentials:
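Mice carrying the transplanted tumor received test compound or vehicle. Survival was recorded in each group, and the value is the treated-group measurement divided by that of the vehicle-treated control group.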

Setting [1] is: dose: 100.0 mg/kg/injection, schedule: Q01DX009 (ip), vehicle: Klucel (hydroxypropylcellulose) (HPC).
Setting [2] is: dose: 200.0 mg/kg/injection, schedule: Q01DX009 (ip), vehicle: Klucel (hydroxypropylcellulose) (HPC).
Where [3] appears, read: dose: 50.0 mg/kg/injection, schedule: Q01DX005 (ip), vehicle: saline with Tween-80.
Setting [4] is: dose: 100.0 mg/kg/injection, schedule: Q01DX005 (ip), vehicle: saline with Tween-80.
The mark [5] stands for this setting: dose: 200.0 mg/kg/injection, schedule: Q01DX005 (ip), vehicle: saline with Tween-80.
[6] abbreviates: dose: 50.0 mg/kg/injection, schedule: Q01DX009 (ip), vehicle: saline.
[7] abbreviates: dose: 100.0 mg/kg/injection, schedule: Q01DX009 (ip), vehicle: saline.
The mark [8] stands for this setting: dose: 50.0 mg/kg/injection, schedule: Q01DX009 (ip), vehicle: Klucel (hydroxypropylcellulose) (HPC).

As for `CCOC(=O)C1(C)C(=O)CC2c3nc4ccccc4cc3CN2C1=O` (configuration not stated), the T/C under setting [1] is 95 % of control; the T/C under setting [2] was 95 % of control; the T/C (dose: 400.0 mg/kg/injection, schedule: Q01DX009 (ip), vehicle: Klucel (hydroxypropylcellulose) (HPC)) was 104 % of control.
`[CH3][Sn]([CH3])([n]1cnc2ccccc21)[n]1cnc2ccccc21`: the T/C (dose: 3.12 mg/kg/injection, schedule: Q01DX005 (ip), vehicle: Klucel (hydroxypropylcellulose) (HPC)) was 111 % of control; the T/C (dose: 6.25 mg/kg/injection, schedule: Q01DX005 (ip), vehicle: Klucel (hydroxypropylcellulose) (HPC)) is 115 % of control; the T/C (dose: 12.5 mg/kg/injection, schedule: Q01DX005 (ip), vehicle: Klucel (hydroxypropylcellulose) (HPC)) is 118 % of control.
Take `CC(=O)NC(Cc1cccc(F)c1)C(=O)O` (configuration not stated): the T/C (dose: 1.56 mg/kg/injection, schedule: Q01DX009 (ip), vehicle: saline) is 111 % of control; the T/C (dose: 3.12 mg/kg/injection, schedule: Q01DX009 (ip), vehicle: saline) was 106 % of control; the T/C (dose: 6.25 mg/kg/injection, schedule: Q01DX009 (ip), vehicle: saline) is 107 % of control and 88 % of control.
Take `S=c1[nH]ncn2nc3ccccc3c12`: the T/C under setting [3] was 100 % of control, the T/C under setting [4] was 97 % of control and the T/C under setting [5] was 97 % of control.
Take `CCC(=O)C(=O)c1ccc(O)c(C)c1O`: the T/C runs as follows: (dose: 50.0 mg/kg/injection, schedule: Q01DX009 (ip), vehicle: saline with Tween-80) 100 % of control; (dose: 100.0 mg/kg/injection, schedule: Q01DX009 (ip), vehicle: saline with Tween-80) 96 % of control; (dose: 200.0 mg/kg/injection, schedule: Q01DX009 (ip), vehicle: saline with Tween-80) 90 % of control.
As to `N=C(N)Cc1ccc(NC(=O)c2ccc(C(=O)Nc3ccc(CC(=N)N)cc3)cc2)cc1`, the T/C was 120 % of control (dose: 9.37 mg/kg/injection, schedule: Q01DX001 (ip), vehicle: saline with Tween-80); 120 % of control (dose: 18.75 mg/kg/injection, schedule: Q01DX001 (ip), vehicle: saline with Tween-80); 115 % of control (dose: 37.5 mg/kg/injection, schedule: Q01DX001 (ip), vehicle: saline with Tween-80).
As to `COC(=O)C1(C)CCCC2(C)C3CCC4CC3(C=C4CO)CCC12` (configuration not stated), the T/C is 108 % of control (dose: 10.0 mg/kg/injection, schedule: Q01DX005 (ip), vehicle: Klucel (hydroxypropylcellulose) (HPC)); 100 % of control (dose: 20.0 mg/kg/injection, schedule: Q01DX005 (ip), vehicle: Klucel (hydroxypropylcellulose) (HPC)); 100 % of control (dose: 40.0 mg/kg/injection, schedule: Q01DX005 (ip), vehicle: Klucel (hydroxypropylcellulose) (HPC)); 93 % of control (dose: 80.0 mg/kg/injection, schedule: Q01DX005 (ip), vehicle: Klucel (hydroxypropylcellulose) (HPC)).
For `O=C(O)COC1CC(=O)N2c3ccccc3C34CCN5C(=O)C(=O)C(CC53)C1C24` (configuration not stated), the T/C (dose: 60.0 mg/kg/injection, schedule: Q01DX005 (ip), vehicle: saline with Tween-80) is 96 % of control; the T/C (dose: 120.0 mg/kg/injection, schedule: Q01DX005 (ip), vehicle: saline with Tween-80) was 95 % of control; the T/C (dose: 240.0 mg/kg/injection, schedule: Q01DX005 (ip), vehicle: saline with Tween-80) was 88 % of control.
On to `CCc1ncnc2cc(OCC3CO3)c(OC)cc12` (configuration not stated), for which the T/C is, setting by setting: (dose: 6.25 mg/kg/injection, schedule: Q01DX005 (ip), vehicle: saline) 114 % of control; (dose: 25.0 mg/kg/injection, schedule: Q01DX005 (ip), vehicle: saline) 155 % of control and 158 % of control; (dose: 50.0 mg/kg/injection, schedule: Q01DX005 (ip), vehicle: saline) 154 % of control and 158 % of control and 182 % of control.
Turning to `COC1=C(N)C(=O)c2nc(-c3ccccc3N)ccc2C1=O`, the T/C is 121 % of control under setting [6] and 120 % of control under setting [7].
For the compound `CN(C)[C@@H]1C(=O)C(C(=O)NCNC2(C(=O)O)CCCC2)=C(O)[C@@]2(O)C(=O)C3=C(O)c4c(O)cccc4[C@@](C)(O)[C@H]3C[C@@H]12`, the T/C under setting [6] was 103 % of control; the T/C under setting [7] is 95 % of control; the T/C (dose: 100.0 mg/kg/injection, schedule: Q01DX009 (ip), vehicle: suspension in saline) is 91 % of control; the T/C (dose: 200.0 mg/kg/injection, schedule: Q01DX009 (ip), vehicle: saline) was 106 % of control; the T/C (dose: 200.0 mg/kg/injection, schedule: Q01DX009 (ip), vehicle: suspension in saline) was 93 % of control; the T/C (dose: 400.0 mg/kg/injection, schedule: Q01DX009 (ip), vehicle: saline) is 98 % of control. In addition, the T/C (dose: 400.0 mg/kg/injection, schedule: Q01DX009 (ip), vehicle: suspension in saline) was 111 % of control.
Consider `O=C1c2ccccc2CCCC12OC2c1ccncc1` (configuration not stated), for which the T/C under setting [8] is 90 % of control, the T/C under setting [1] was 96 % of control and the T/C under setting [2] was 90 % of control.
For the compound `CCC(C)/C(=C\C#N)NCCN/C(=C/C#N)C(C)CC` (configuration not stated), the T/C is 94 % of control (dose: 60.0 mg/kg/injection, schedule: Q01DX005 (ip), vehicle: Klucel (hydroxypropylcellulose) (HPC)); 91 % of control (dose: 120.0 mg/kg/injection, schedule: Q01DX005 (ip), vehicle: Klucel (hydroxypropylcellulose) (HPC)); 89 % of control (dose: 240.0 mg/kg/injection, schedule: Q01DX005 (ip), vehicle: Klucel (hydroxypropylcellulose) (HPC)).
For the compound `CCc1ccc2c(c1OCOC)CCC2`, the T/C is 100 % of control (dose: 100.0 mg/kg/injection, schedule: Q04DX002 (ip), vehicle: saline with Tween-80); 100 % of control (dose: 200.0 mg/kg/injection, schedule: Q04DX002 (ip), vehicle: saline with Tween-80); 95 % of control (dose: 400.0 mg/kg/injection, schedule: Q04DX002 (ip), vehicle: saline with Tween-80).
Regarding `COc1cc2c(cc1O)C(C)Cc1cc3c(cc1N(C)CC2)OCO3` (configuration not stated), the T/C was 106 % of control (dose: 100.0 mg/kg/injection, schedule: Q04DX002 (ip), vehicle: saline); 113 % of control (dose: 200.0 mg/kg/injection, schedule: Q04DX002 (ip), vehicle: saline); 103 % of control (dose: 400.0 mg/kg/injection, schedule: Q04DX002 (ip), vehicle: saline).
For `Cc1cc(C)c(C(Cl)(Cl)Cl)c(C)c1Cl`, the T/C is 104 % of control (dose: 6.25 mg/kg/injection, schedule: Q04DX003 (ip), vehicle: saline with Tween-80); 90 % of control (dose: 8.0 mg/kg/injection, schedule: Q04DX003 (ip), vehicle: saline with Tween-80); 100 % of control (dose: 12.0 mg/kg/injection, schedule: Q04DX003 (ip), vehicle: saline with Tween-80); 118 % of control (dose: 12.5 mg/kg/injection, schedule: Q01DX009 (ip), vehicle: saline sonified); 118 % of control (dose: 12.5 mg/kg/injection, schedule: Q04DX003 (ip), vehicle: saline with Tween-80); 113 % of control (dose: 18.0 mg/kg/injection, schedule: Q04DX003 (ip), vehicle: saline with Tween-80). For the same compound, the T/C was 165 % of control (dose: 33.0 mg/kg/injection, schedule: Q01DX009 (ip), vehicle: saline sonified); 150 % of control (dose: 50.0 mg/kg/injection, schedule: Q01DX009 (ip), vehicle: saline sonified); 105 % of control (dose: 75.0 mg/kg/injection, schedule: Q01DX009 (ip), vehicle: saline sonified).
For the compound `CC(C)=CCC/C(C)=C\C1OC(C)C(C)O1` (configuration not stated), the T/C under setting [3] is 104 % of control, the T/C under setting [4] was 100 % of control and the T/C under setting [5] is 107 % of control.
For the compound `CP1(=S)CCC2=C1CCc1cc(O)ccc12` (configuration not stated), the T/C under setting [8] was 104 % of control, the T/C under setting [1] is 104 % of control and the T/C under setting [2] was 101 % of control.
In the case of `CN(C)c1ccc(C(c2cc3c(cc2O)OCO3)N2CCN(C(c3ccc(N(C)C)cc3)c3cc4c(cc3O)OCO4)CC2)cc1` (configuration not stated), the T/C (dose: 60.0 mg/kg/injection, schedule: Q01DX005 (ip), vehicle: saline) is 96 % of control; the T/C (dose: 120.0 mg/kg/injection, schedule: Q01DX005 (ip), vehicle: saline) was 100 % of control; the T/C (dose: 240.0 mg/kg/injection, schedule: Q01DX005 (ip), vehicle: saline) is 99 % of control.
